The conditions of series [1]: cited from earlier work; for water solubility: atazenavir: as a free base.
For series [2] the following is noted: free base; preclinical animal models; cited from earlier work.
A short description of series [3]: In vitro dissolution rate of the AZI (2015 Chinese pharmacopoeia, deionized water, 37° C., UV 482 nm). It is filed as physicochemical. The conditions noted are these: at 120 min, 100 rpm. Here is the method: The original AZI powder was dissolved in anhydrous ethanol to form a solution with a concentration of 2 mg/ml under ultrasonic dispersion at room temperature. Subsequently, hydrochloric acid (0.1 M) was added into the AZI solution to form a series of AZI solution with different concentrations (16, 32, 48, 64, 80, 96 μg/ml). Then, 5 ml of each AZI sample and 5 ml of sulfuric acid (73.5%) were added into a test tube and mixed, after that the resultant mixture was kept for reaction for 30 min at the room temperature. Finally, UV absorption was measured at a wavelength of 482 nm to determine the concentration of the AZI solution, and a standard AZI curve can be plotted.
The dissolution rate was determined according to the method of 2015 Chinese pharmacopoeia (XC II). Firstly, 2 mg of AZI was placed in 100 ml of deionized water, and stirred at 100 rpm and 37° C. […]
Then, 2 ml sulfuric acid (73.5%) and 2 ml of the resultant filtrate were added to a test tube to form a mixture, and the mixture was kept for 30 min. Finally, UV absorption was measured at a wavelength of 482 nm to determine the AZI concentration. The dissolution rate of AZI was calculated using Eq. 2: Dissolution rate (%)=(Cn×V2+C1×V1+C2×V1+ . . . +Cn-1×V1)×100%/m (2) […]

≈ marks a conversion by molar mass, not a printed value. Where two headings read alike, the source gives them in different places. A value given as a limit tells only on which side of the number the result lay.

`CC(C(=O)O)c1ccc2c(c1)[nH]c1ccc(Cl)cc12` (stereo not drawn) [carprofen]: the solubility in water in series [1] and in series [1] (value in brackets) was 3.79 µg/mL (≈ 13.8 µM) throughout.

As to `COC(=O)N[C@H](C(=O)N[C@@H](Cc1ccccc1)[C@@H](O)CN(Cc1ccc(-c2ccccn2)cc1)NC(=O)[C@@H](NC(=O)OC)C(C)(C)C)C(C)(C)C` [atazenavir], the oral bioavailability entry in series [2] is “poor oral bioavailability”. Further, the water solubility in series [1] was below 1 µg/mL.

Turning to `CCOc1cc(CC(=O)N[C@@H](CC(C)C)c2ccccc2N2CCCCC2)ccc1C(=O)O` [repaglinide], in series [1], the water solubility was 37 µg/mL (≈ 81.8 µM).

`CC[C@H]1OC(=O)[C@H](C)[C@@H](O[C@H]2C[C@@](C)(OC)[C@@H](O)[C@H](C)O2)[C@H](C)[C@@H](O[C@@H]2O[C@H](C)C[C@H](N(C)C)[C@H]2O)[C@](C)(O)C[C@@H](C)CN(C)[C@H](C)[C@@H](O)[C@]1(C)O` [original AZI, Azithromycin]: the “dissolution rate of AZI” value in series [3] was determined as 1.31%.

Source of the values: patent US11723867B2, “Method for preparing pharmaceutical composition and pharmaceutical composition” (UPM-Kymmene Corporation, priority 2019, dated 2023).
